The nature of data set [1]: Stability in rat liver microsomes. Type of data set: in vitro ADME. Here is the method: (§1) The stability of the compounds of the present invention in human and rat liver microsomes can be tested by the following two methods:
(§2) Human or rat liver microsomes were incubated in polypropylene tubes in duplicate wells. A typical incubation mixture included human or rat liver microsomes (0.5 mg protein/mL), target compound (5 µM), and a total volume of 200 µL of NADPH (1.0 mM) potassium phosphate buffer (PBS, 100 mM, pH 7.4), the compound was dissolved in DMSO and diluted with PBS, the final concentration of the DMSO solution was 0.05%. Human or rat liver microsomes were incubated at 37° C. in an air-connected water bath. After pre-incubation for 3 minutes, […] was added to start the reaction. The same volume of ice-cold acetonitrile was added to terminate the reaction at different time points (0, 5, 10, 15, 30 and 60 min). Samples were stored at -80° C. until LC/MS/MS analysis.
(§3) The linear concentration range of each target compound was determined, and then, the concentration of the target compounds in the human or rat liver microsomes incubation mixture was determined by LC/MS/MS method.
(§4) Parallel incubations were performed using denatured microsomes as a negative control and dextromethorphan (70 µM) as a positive control. Negative control was incubated at 37° C., the reaction was terminated at different time points (0, 15 and 60 minutes); positive control was incubated at 37° C., the reaction was terminated at different time points (0, 5, 10, 15, 30 and 60 minutes). Positive and negative control samples were used in each assay to ensure the integrity of the microsomal incubation system.
(§5) In addition, the stability data of the compounds of the present invention in human or rat liver microsomes can also be obtained from the following tests:
(§6) Human or rat liver microsomes were incubated in polypropylene tubes in duplicate wells. A typical incubation mixture included human or rat liver microsomes (final concentration: 0.5 mg protein/mL), target compound (final concentration: 1.5 µM) and a total volume of 30 µL of K-buffer solution (containing 1.0 mM EDTA, 100 mM, pH 7.4). Compounds were dissolved in DMSO and diluted with K-buffer solution, the final concentration of DMSO was 0.2%. […]
(§7) For each reaction, in vivo intrinsic hepatic clearance CLint is extrapolated by plotting the compound concentration (expressed as a percentage) in human or rat liver microsomal incubations as a percentage relative to time zero (ref.: Naritomi Y, Terashita S, Kimura S, Suzuki A, Kagayama A, Sugiyama Y. Prediction of human hepatic clearance from in vivo animal experiments and in vitro metabolic studies with liver microsomes from animals and humans. Drug Metabolism and Disposition 2001, 29: 1316-1324.).

Data set [2] has as its system JAK1/TYK2. The data set is described as follows: Cell level activity test of JAK1/TYK2 (IFN-α induced STAT3 phosphorylation in PBMC). Format: cell-based. The conditions noted are these: Homo sapiens; P-STAT3 by ELISA in PBMC, compound 1 h, IFN-α 5000 U/mL 15 min; read-out: IC50 nM (JAK 1 /TYK2).
Data set [3] deals with P-STAT3. In words: Effect of TYK2 inhibitor on P-STAT3 expression in PBMC induced by IFN-α (Table 3, P-STAT3 (h)). Type of data set: cell-based. Conditions: Homo sapiens; P-STAT3 by ELISA, PBMC stimulated with IFN-α 5000 U/mL. Here is the method:
Whole blood was collected from healthy subjects, anticoagulated with heparin sodium, and PBMC (human peripheral blood mononuclear cells) were extracted. PBMC were seeded in 96-well culture plates at a density of 1*106/well. The initial concentration of the positive drug BMS986165 was 1000 nM, after diluting 10 times, the positive drug BMS986165 was diluted 8 concentrations by 3 times; the concentration of the other tested compounds was 333 nM. Positive wells and negative wells were added with the same volume of DMSO as the compound, and the final concentration of DMSO was 0.5%. After the compound was added, the cells were incubated at 37° C. for 1 h, and then stimulated by the addition of IFN-α at a final concentration of 5000 U/mL. An equal volume of medium was added to the negative wells and incubated for 15 min. The cells were centrifuged to remove the supernatant, and lysed, and the P-STAT3 was measured according to the instructions of the ELISA kit, the absorbance was read at 450 nm, and the IC50 value or inhibition rate was calculated.
CTLL-2, P-STAT3 and TF-1 cells were seeded in a 96-well culture plate at a density of 20,000/well with 90 µL per well, and the blank well was an equal amount of complete medium. […]
(In an ELISA, binding on a coated surface is turned into a signal by an enzyme label.)

The test system of data set [4] is CTLL-2 cells. In words: Inhibitory effect on CTLL-2 cell proliferation. The conditions noted are these: alamar blue, read-out: IC50 (nM) CTLL-2 (h). Type of data set: cell-based. Here is the method:
CTLL-2, P-STAT3 and TF-1 cells were seeded in a 96-well culture plate at a density of 20,000/well with 90 µL per well, and the blank well was an equal amount of complete medium. 10 ul of different compound dilutions were added to each plate row BC, DE, and FG, and 5% DMSO medium with equal volume of the compound was added to positive wells and negative wells, and the final concentration of DMSO was 0.5%. After incubating in a 37° C. incubator for 20 h, alamar blue was added, the plate was incubated for 4 h, the fluorescence intensity of each well under the conditions of […], 580 nm wavelength was measured, and the IC50 value was calculated.
In general terms: Resazurin is reduced to fluorescent resorufin, in cell work by metabolically active cells.

A short description of data set [5]: Stability in human liver microsomes. Type of data set: in vitro ADME. The protocol:
as §1, §2, §3, §4, §5, §6, §7
(In general: Microsomes from liver hold many membrane-bound enzymes, among them those of drug oxidation.)

Setting [6] is: pH 7.4, in vivo intrinsic hepatic clearance extrapolated.

Usually CLint scaled stands for the rate of metabolic loss divided by the concentration. `CC(=O)Nc1cc2c(-c3ccc4c(n3)C3(CCOC3)OC4)cn(C)c2cn1` (stereo not shown) [Example 2, N-(3-(4,5-Dihydro-2H,5′H-Spiro[Furan-3,7′-Furo[3,4-b]Pyridin]-2′-yl)-1-Methyl-1H-Pyrrolo[2,3-c]Pyridin-5-yl)Acetamide]: the CLint scaled was 15.4 mL/min/kg in data set [1] (setting [6]) and 36 mL/min/kg in data set [5] (setting [6]). The half-life in data set [1] (rat, pH 7.4, read-out: Rat T½) stood at 2.69 h; in data set [5] (human, pH 7.4, read-out: Human T½), 0.804 h. The IC50 in data set [2] was 95.8 nM; in data set [3], 95.8 nM; in data set [4], above 10000 nM.
